Columns and labels:
plasminogen (Pg) = molecular target: T1, plasminogen (Pg) (Homo sapiens, UniProt P00747); experiment: Chromogenic activity assay: activation of unmodified and MG-modified Pg to plasmin by tPA, uPA or STK on a fibrin matrix; assay type: biochemical; settings: p<0.05
T1 construct: Glu-Pg, uPA, tPA, fibrinogen, and chromogenic substrate for Pn were purchased from Molecular Innovations (Novi, Mich.); purchased Molecular Innovations (Novi, Mich.)
Experimental: (§1) 10 μg Pg was incubated with MG (50-500 μM) in tris-buffered saline (TBS) for 24 hours at 37° C. Following modification, sample volumes were increased to 150 μL and placed in 5 kDa spin filters to reduce volume and remove excess MG from solution.
96-well plate was incubated with 200 μL of 260 nM fibrinogen in TBS for 40 min at room temperature. Fibrinogen solution was removed and replaced with 250 μL TBS containing 3% bovine serum albumin and 0.01% TWEEN for 90 minutes at 37° C. Blocking solution was removed and the plate was washed twice with solution of 50 mM Tris-HCl, 110 mM NaCl and 0.01% TWEEN (pH 7.4). 5 units/mL of thrombin and 5 mM CaCl2 in 50 mM Tris-HCl, 110 mM NaCl (pH 7.4) was added to the wells for 45 min. A high salt wash (1 M NaCl, 50 mM Tris-HCl, pH 7.4) followed by a TBS-TWEEN wash completed plate prep.
Into each well 198 μL of 10 mM HEPES/150 mM NaCl (pH 7.4) was added. Into each well, 2 μL of 25 mM chromogenic substrate for Pn (D-VLK-pNA) was added. To appropriate wells were added 2 μL of 20 μM Pg, either a 24-hour unmodified control or 24 hour 50-500 μM MG modified. Activators were added to respective wells to test activation of unmodified and modified Pg. 2 μL of each activator enzyme was utilized in appropriate wells for tPA (1.2 μM), uPA (5 μM) and STK (500 nM). Following enzyme addition, plate was immediately read on a SpectraMax M2 plate reader (Molecular Devices) every minute for 90 minutes at an absorbance of 405 nm.
Pg (10 μg) was incubated with MG (50-500 μM) in 10 mM HEPES/150 mM NaCl (pH 7.4) for 24 hours at 37° C. Following modification, sample volumes were increased to 150 μL and placed in 5 kDa spin filters to reduce volume and remove excess MG from solution. A 96-well plate was incubated with 200 μL of 260 nM fibrinogen in TBS for 40 min. at room temperature. Fibrinogen solution was removed and replaced with 250 μL TBS containing 3% bovine serum albumin and 0.01% TWEEN for 90 minutes at 37° C. Blocking solution was removed and the plate was washed twice with solution of 50 mM Tris-HCl, 110 mM NaCl and 0.01% TWEEN (pH 7.4). Thrombin (5 units/mL) and 5 mM CaCl2 in 50 mM Tris-HCl, 110 mM NaCl (pH 7.4) was added to the wells for 45 min. A high salt wash (1M NaCl, 50 mM Tris-HCl, pH 7.4) followed by a TBS-TWEEN wash completed plate prep. Into each well, 198 μL of 10 mM HEPES/150 mM NaCl (pH 7.4) and 2 μL of 25 mM chromogenic substrate for Pn (D-VLK-pNA) were added. To appropriate wells were added 2 μL of 20 μM Pg, either a 24-hour unmodified control or 24 hour 50-500 μM MG modified. Activators were added to respective wells to test activation of unmodified and modified Pg. Each activator enzyme (2 μL) was utilized in appropriate wells for tPA (12 nM), uPA (50 nM) and STK (5 nM) (Ajjan et al., 2013, Zhang et al., 2012). Following enzyme addition, plate was immediately read on a SpectraMax M2 plate reader (Molecular Devices) every minute for 90 minutes at an absorbance of 405 nm.

Pg = molecular target: T2, Pg (Homo sapiens, UniProt P00747); experiment: Two-dimensional gel electrophoresis of MG-modified Pg (isoelectric point shift); assay type: physicochemical; settings: 24-hr 500 μM MG; 4-7 pH isoelectric focusing strip
T2 construct: Glu-Pg, uPA, tPA, fibrinogen, and chromogenic substrate for Pn were purchased from Molecular Innovations (Novi, Mich.); purchased Molecular Innovations (Novi, Mich.)
Experimental: as §1
MG-modified (500 μM) and unmodified Pg control (same incubation conditions without MG) were added to 250 μL amount of rehydration buffer (6M urea, 2M thiourea, 2% CHAPS, 100 mM DTT, 0.5% 3-10 ampholytes) and 5 μL of 3-10 ampholytes (Bio-Rad). Sample rehydrated with a 13 cm 4-7 pH isoelectric focusing strip (GE Healthcare) overnight. Following rehydration, strips were placed in a Bio-Rad PROTEAN IEF Cell focusing instrument. Strips were first focused for 1 hour at 500 V, and then run at a maximum of 8,000V until the strips have reached a final total of 45,000 V/hrs at which point gels are held at 500V until removed. Focused strips were removed, reduced with DTT, cysteines carbamidomethylated with iodoacetamide, and run on a 4-20% gradient Criterion gel for 55 minutes at 200V. Gels were stained for stained according to manufacturer instructions with Imperial Blue Protein (ThermoScientific, Rockford, Ill.) and destained immediately with water. Gel bands were excised and trypsin digested.

T1 sequence (P00747 20-810 limits assumed): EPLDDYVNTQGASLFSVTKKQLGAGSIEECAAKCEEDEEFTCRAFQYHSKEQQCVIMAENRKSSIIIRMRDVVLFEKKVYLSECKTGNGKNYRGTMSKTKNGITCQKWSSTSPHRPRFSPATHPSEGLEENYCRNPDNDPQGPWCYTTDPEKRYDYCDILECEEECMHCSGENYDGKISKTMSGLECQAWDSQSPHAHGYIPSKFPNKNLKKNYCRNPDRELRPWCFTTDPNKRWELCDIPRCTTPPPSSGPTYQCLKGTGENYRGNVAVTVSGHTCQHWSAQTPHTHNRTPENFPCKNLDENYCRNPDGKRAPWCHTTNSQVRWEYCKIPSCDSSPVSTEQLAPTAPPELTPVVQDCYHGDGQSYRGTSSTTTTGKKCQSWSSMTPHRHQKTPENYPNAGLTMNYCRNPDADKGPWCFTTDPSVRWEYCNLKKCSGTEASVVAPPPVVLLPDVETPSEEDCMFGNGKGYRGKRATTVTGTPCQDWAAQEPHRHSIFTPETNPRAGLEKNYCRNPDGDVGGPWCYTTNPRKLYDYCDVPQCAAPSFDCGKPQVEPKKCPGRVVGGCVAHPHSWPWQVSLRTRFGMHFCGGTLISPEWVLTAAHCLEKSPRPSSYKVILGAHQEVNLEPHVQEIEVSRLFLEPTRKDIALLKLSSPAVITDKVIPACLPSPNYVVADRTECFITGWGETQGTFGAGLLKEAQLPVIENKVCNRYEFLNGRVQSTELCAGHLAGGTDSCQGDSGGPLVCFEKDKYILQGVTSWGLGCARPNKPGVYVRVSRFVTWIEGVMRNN
T2 sequence (P00747 20-810 limits assumed): as above

## CC(=O)C=O [MG, Methylglyoxal]
Plasminogen (Pg); STK 5 nM, Pg modified 24 hours with 100 μM MG
  time at which significant delay in activation of MG-modified Pg is detectable: 16 min
Plasminogen (Pg); STK 5 nM, Pg modified 24 hours with 500 μM MG
  time at which significant delay in activation of MG-modified Pg is detectable: 12 min
Plasminogen (Pg); tPA 12 nM, Pg modified 24 hours with 100 μM MG
  time at which significant delay in activation of MG-modified Pg is detectable: 30 min
Plasminogen (Pg); tPA 12 nM, Pg modified 24 hours with 500 μM MG
  time at which significant delay in activation of MG-modified Pg is detectable: 28 min
Plasminogen (Pg); uPA 50 nM, Pg modified 24 hours with 500 μM MG
  time at which significant delay in activation of MG-modified Pg is detectable: 37 min
Pg
  pI of MG-modified Pg: 5.8-6.7
